In patent US20120245029A1, “NOVEL PHOSPH(ON)ATE- AND SULF(ON)ATE-BASED PHOSPHATE MODIFIED NUCLEOSIDES USEFUL AS SUBSTRATES FOR POLYMERASES AND AS ANTIVIRAL AGENTS” (priority 2009, published 2012):

Legend:
HIV-1 RT [1] = molecular target: T1, HIV-1 RT (Human immunodeficiency virus type 1 group M subtype B, UniProt P04585); assay: Gel-based single nucleotide incorporation assay by HIV-1 RT (primer-template P1T1); format: biochemical; details: for % of P + 1: P1T1 125 nM; for conversion within 60 minutes: P1T1
T1 construct: HIV-1 Reverse Transcriptase serves, in the HIV-1 viral replication process, as catalyst; purchased Ambion
Description: (§1) DNA polymerase reactions: end-labeled primer was annealed to its template by combining primer and template in a molar ratio of 1:2 and heating the mixture to 70° C. for 10 minutes followed by slow cooling to room temperature over a period of 1.5 hour. For the incorporation of a modified nucleoside, a series of 20 μL-batch reactions was performed with the enzyme HIV-1 RT (Ambion, 10 U/μL stock soln, specific activity 8.095 Wring, concentration 1.2 mg/mL). The final mixture contained 125 nM primer template complex, RT buffer (250 mM Tris.HCl, 250 mM KCl, 50 mM MgCl2, 2.5 mM spermidine, 50 mM dithiothreitol (DTT); pH 8.3), 0.025 U/μL HIV-1 RT, and different concentrations of the phosphoramidate to be tested (1 mM, 500 μM, 200 μM and 100 μM).
(§2) Electrophoresis: all polymerase reaction aliquots (2.5 μL) were quenched by the addition of 10 μL of loading buffer (90% formamide, 0.05% bromophenol blue, 0.05% xylene cyanol and 50 mM ethylenediaminetetraacetic acid (EDTA)). Samples were heated at 85° C. for 5 minutes prior to analysis by electrophoresis for 2.5 hours at 2000 V on a 30 cm×40 cm×0.4 mm 20% (19:1 mono:bis) denaturing gel in the presence of a 100 mM Tris-borate, 2.5 mM EDTA buffer; pH 8.3. Products were visualized by phosphorimaging. The amount of radioactivity in the bands corresponding to the products of enzymatic reactions was determined by using the imaging device Cyclone@ and the Optiquant image analysis software (Perkin Elmer).
Here, the ability of phosphoramidate analogues as substrate for HIV-1 RT was investigated by the gel-based single nucleotide incorporation assay. The natural nucleoside triphosphate (dATP) was used as reference.
The ability of HIV-1 reverse transcriptase to incorporate phosphoramidate analogues 2-6 was analysed by gel-based single-nucleotide-incorporation assays using the primer-template complex P1T1.

HIV-1 RT [2] = molecular target: T1, HIV-1 RT; assay: Elongation of primer P1 directed by template T2 by HIV-1 RT; format: biochemical; details: for % product P + 1 / % product P + 2 / % product P + 3 / % product P + 4 / % product P + 5 / % product P + 6 / % product P + 7: 120 minutes reaction, P1T2, percentage of the total amount of radio-nucleotides
Description: as §1, §2
In order to further investigate the potentiality of the leaving groups of this invention, L-Cys-dAMP (2) and 3-phosphono-L-Ala-dAMP (3) were tested in the template dependent incorporation of more than one phosphoramidate nucleotides by HIV-1 RT (FIG. 4). For this purpose, Primer P1 and template T2 containing an overhang of seven thymidine residues and four nucleobases (GGAC) at the 3′-end were used.
In order to investigate the strand elongation capacity of compound 2, a template dependent incorporation of more than one nucleotide experiment was carried out. In this experiment HIV-1 RT and P1T2 duplex, where seven thymidine bases overhang of the template is flanked by four non-thymidine units at the 3′-end were used. A range of concentration of the building block was incubated with the primer-template complex and 0.025 U/μL of enzyme at the appropriate temperature, samples were quenched after 15, 30, 60, 90 and 120 minutes respectively and analyzed by 20% polyacrylamide gel electrophoresis.

HIV-1 RT [3] = molecular target: T1, HIV-1 RT; assay: Gel-based single nucleotide incorporation assay by HIV-1 RT (primer-template P1T1); format: biochemical; details: among phosphoramidate analogues 1-5
HIV-1 RT [4] = molecular target: T1, HIV-1 RT; details: previous experiments / already known; cited from earlier work
HIV-1 RT [5] = molecular target: T1, HIV-1 RT; assay: Steady-state kinetics of single nucleotide incorporation by HIV-1 RT; format: biochemical; details: P1T1 125 nM, HIV-1 RT 0.025 U/μL, 37° C.
Description: The efficiency of incorporation by HIV-1 RT of 3-phosphono-L-Ala-dAMP (3) was investigated by determination of the kinetic parameters Km and Vmax. The steady-state kinetics assay was carried out as follows. The reaction was started by adding HIV-1 RT to P1-T1 complex, buffer, 3-phosphono-L-Ala-dAMP (3) and dATP. The final mixture (20 μL) contained 0.025 U/μL HIV-1 RT, buffer, 125 nM primer-template complex, and various concentrations 3-phosphono-L-Ala-dAMP and dATP. The range of concentrations for phosphoamidates was optimized according to a Km value for the incorporation of an individual nucleotide. In the case of HIV-1 RT, reaction mixtures containing the enzyme in concentration (0.025 U/μL) to attain 5-25% conversion and appropriate substrate concentration (0.5-100 μM used for 3-phosphono-L-Ala-dAMP (3) and 0.1-10 μM used for dATP) were incubated at 37° C. and run for 8-10 different time intervals (2-20 minutes). The incorporation velocities were calculated based on the percentage of single-nucleotide extension product (P+1 band). The kinetic parameters (Vmax and Km) were determined by plotting V (nM/min) versus substrate concentration (μM) and fitting the data point to a nonlinear Michaelis-Menten regression using GraphPad Prism software.

Structure (SMILES) | % of P + 1 (HIV-1 RT [1]; 100 μM substrate, 10 min) | % of P + 1 (HIV-1 RT [1]; 100 μM substrate, 20 min) | % of P + 1 (HIV-1 RT [1]; 100 μM substrate, 30 min) | % of P + 1 (HIV-1 RT [1]; 100 μM substrate, 60 min) | % of P + 1 (HIV-1 RT [1]; 100 μM substrate, 120 min) | % of P + 1 (HIV-1 RT [1]; 200 μM substrate, 10 min) | % of P + 1 (HIV-1 RT [1]; 200 μM substrate, 20 min) | % of P + 1 (HIV-1 RT [1]; 200 μM substrate, 30 min) | % of P + 1 (HIV-1 RT [1]; 200 μM substrate, 60 min) | % of P + 1 (HIV-1 RT [1]; 200 μM substrate, 120 min) | % of P + 1 (HIV-1 RT [1]; 1 mM substrate, 60 min) | conversion within 60 minutes (HIV-1 RT [1]; 500 μM substrate, 60 min) | % product P + 1 (HIV-1 RT [2]) | % product P + 2 (HIV-1 RT [2]) | % product P + 3 (HIV-1 RT [2]) | % product P + 4 (HIV-1 RT [2]) | % product P + 5 (HIV-1 RT [2]) | % product P + 6 (HIV-1 RT [2]) | % product P + 7 (HIV-1 RT [2]) | further results
Nc1ncnc2c1ncn2[C@H]1C[C@H](O)[C@@H](COP(=O)(O)NCCS(=O)(=O)O)O1 [Compound 1, 2′-deoxyadenosine-5′-taurine phosphoramidate] | 3.5% | 4.0% | 4.8% | 6.3% | 7.2% | 3.1% | 5.7% | 4.6% | 5.1% | 4.3% | 54.7% | – | – | – | – | – | – | – | – | % of P + 1 (HIV-1 RT [1]; 500 μM substrate, 10 min): 12.8%; % of P + 1 (HIV-1 RT [1]; 500 μM substrate, 20 min): 16.6%; % of P + 1 (HIV-1 RT [1]; 500 μM substrate, 30 min): 19.8%; % of P + 1 (HIV-1 RT [1]; 500 μM substrate, 60 min): 20.1%; % of P + 1 (HIV-1 RT [1]; 500 μM substrate, 120 min): 20.2%; % of P + 1 (HIV-1 RT [1]; 1 mM substrate, 10 min): 26.6%; % of P + 1 (HIV-1 RT [1]; 1 mM substrate, 20 min): 41.0%; % of P + 1 (HIV-1 RT [1]; 1 mM substrate, 30 min): 55.1%; % of P + 1 (HIV-1 RT [1]; 1 mM substrate, 120 min): 55.7%
Nc1ncnc2c1ncn2[C@H]1C[C@H](O)[C@@H](COP(=O)(O)N[C@@H](CS(=O)(=O)O)C(=O)O)O1 [Compound 2, 2′-Deoxyadenosine-5′-(L-cysteic acid) phosphoramidate] | 7.7% | 7.9% | 8.5% | 9.3% | 9.1% | 13.7% | 15.6% | 16.0% | 15.8% | 18.1% | 63.1% | – | – | – | – | – | – | – | – | % of P + 1 (HIV-1 RT [1]; 500 μM substrate, 10 min): 27.7%; % of P + 1 (HIV-1 RT [1]; 500 μM substrate, 20 min): 29.6%; % of P + 1 (HIV-1 RT [1]; 500 μM substrate, 30 min): 38.3%; % of P + 1 (HIV-1 RT [1]; 500 μM substrate, 60 min): 38.4%; % of P + 1 (HIV-1 RT [1]; 500 μM substrate, 120 min): 41.5%; primer extension products (in words) (HIV-1 RT [2]; P1T2, gel electrophoresis): only extended a primer with one and two adenine nucleobases
Nc1ncnc2c1ncn2[C@H]1C[C@H](O)[C@@H](COP(=O)(O)N[C@@H](COS(=O)(=O)O)C(=O)O)O1 [Compound 4, 2′-Deoxyadenosine-5′-(O-sulfonato-L-serine) phosphoramidate] | – | – | – | – | – | – | – | – | – | – | 8.1% | – | – | – | – | – | – | – | – | substrate quality for HIV-1 RT (in words) (HIV-1 RT [3]): much less good substrates
Nc1ncnc2c1ncn2[C@H]1C[C@H](O)[C@@H](COP(=O)(O)N[C@@H](COP(=O)(O)O)C(=O)O)O1 [Compound 5, 2′-Deoxyadenosine-5′-(O-phospho-L-serine) phosphoramidate] | 3.1% | 3.2% | 4.6% | 5.1% | 5.2% | 3.7% | 4.6% | 5.8% | 6.6% | 9.5% | 19.4% | – | – | – | – | – | – | – | – | substrate quality for HIV-1 RT (in words) (HIV-1 RT [3]): much less good substrates
Nc1ncnc2c1ncn2[C@H]1C[C@H](O)[C@@H](COP(=O)(O)N(CP(=O)(O)O)CP(=O)(O)O)O1 [Compound 6, 2′-deoxyadenosine-5′-[iminobis(methanephosphonate)] phosphoramidate] | – | – | – | – | – | – | – | – | – | – | – | 90% | 8.6% | 53.1% | 10.8% | traces | 0% | 0% | 0% | –
Nc1ncnc2c1ncn2[C@H]1C[C@H](O)[C@@H](COP(=O)(O)N(CCP(=O)(O)O)CCP(=O)(O)O)O1 [Compound 7, 2′-deoxyadenosine-5′-[iminobis(ethyl phosphonate)] phosphoramidate] | – | – | – | – | – | – | – | – | – | – | – | 83.2% | 15.2% | 35.4% | 4.9% | traces | 0% | 0% | 0% | –
Nc1ncnc2c1ncn2[C@H]1CC(O)[C@@H](COP(=O)(O)N(CC(=O)O)CP(=O)(O)O)O1 (stereo partly shown) [Compound 8] | – | – | – | – | – | – | – | – | – | – | – | 70.8% | 11.8% | 37.7% | 7.9% | traces | 1.2% | 0.6% | 1.2% | –
Nc1ncnc2c1ncn2C1CC(O)C(COP(=O)(O)NC(CC(=O)O)C(=O)O)O1 [L-aspartic acid phosphoramidate of dAMP] | – | – | – | – | – | – | – | – | – | – | – | – | – | – | – | – | – | – | – | substrate / leaving group quality for the polymerase (in words), already known (HIV-1 RT [4]): acceptable leaving group
Nc1ncnc2c1ncn2[C@H]1C[C@H](O)[C@@H](COP(=O)(O)N[C@@H](CO)C(=O)O)O1 [Ser-dAMP] | – | – | – | – | – | – | – | – | – | – | – | – | – | – | – | – | – | – | – | substrate / leaving group quality for the polymerase (in words), already known (HIV-1 RT [4]): poor substrate
Nc1ncnc2c1ncn2[C@H]1C[C@H](O)[C@@H](COP(=O)(O)OP(=O)(O)OP(=O)(O)O)O1 [dATP, reference compound] | – | – | – | – | – | – | – | – | – | – | – | – | – | – | – | – | – | – | – | Km (HIV-1 RT [5]): 0.93 ± 0.26 µM; Vmax (HIV-1 RT [5]): 32.27 ± 2.32 nM/min
